Among the data in patent US8268827B2, “Pyridazinone derivatives as PARP inhibitors” (Istituto di Ricerche di Biologia Molecolare P. Angeletti …, priority 2007, dated 2012) are IC50 and CC50 values, retold here.

The term IC50 denotes the point on the concentration scale where inhibition reaches its midpoint. What is called CC50 is the concentration that lowers cell viability or growth by half.

Counter-ions that a name gives are not always drawn.

One assay addresses T1, PARP-1 (Homo sapiens, UniProt P09874).
T1 construct: purchased Trevigen 4668-500-01
Kind of assay: PARP-1 SPA assay. In kind it is biochemical. The method, then: Assay buffer: 100 mM Tris pH 8, 4 mM MgCl2, 4 mM Spermine, 200 mM KCl, 0.04% Nonidet P-40.
Nicotinamide-adenine dinucleotide (NAD)/DNA Mix: [^3H-NAD] (250 uCi/ml, 0.4 ul, Perkin-Elmer NET-443H), NAD (1.5 mM, 0.05 ul, SIGMA N-1511), Biotinylated-NAD (250 uM, 0.03 ul, Trevigen 4670-500-01), Activated calf thymus (1 mg/ml, 0.05 ul, Amersham Biosciences 27-4575), H2O (to 10 ul).
Developing Mix: Streptavidin SPA beads (5 mg/ml, Amersham Biosciences RPNQ 0007) dissolved in 500 mM EDTA.
The reaction is performed in 96-well microplate with a final volume of 50 uL/well. Add 5 ul 5% DMSO/compound solution, add enzyme mix (35 ul), start the reaction by adding NAD/DNA mix (10 uL) and incubate for 2 hrs at RT. Stop the reaction by adding developing mix (25 ul) and incubate 15 min at RT. Measure using a Packard TOP COUNT instrument.

Assay [1] relates to BRCA-1 silenced HeLa cells (HeLa shBRCA1-GFP). Kind of assay: Proliferation assay in BRCA-1 silenced HeLa cells. To be noted: Homo sapiens; BRCA1 silenced HeLa cells, 168 hours; read-out: CC50 in the BRCA1 silenced HeLa cells. Format: cell-based. An outline of the steps:
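Antiproliferative effect was read by Celltiter Blue fluorescence after 168 h of compound treatment at 37° C., 5% CO2. Cells were matched HeLa pairs, BRCA1-shRNA (>80% silenced, GFP) versus non-shRNA vector control, in DMEM with 10% FCS.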

T1 sequence (P09874 whole entry): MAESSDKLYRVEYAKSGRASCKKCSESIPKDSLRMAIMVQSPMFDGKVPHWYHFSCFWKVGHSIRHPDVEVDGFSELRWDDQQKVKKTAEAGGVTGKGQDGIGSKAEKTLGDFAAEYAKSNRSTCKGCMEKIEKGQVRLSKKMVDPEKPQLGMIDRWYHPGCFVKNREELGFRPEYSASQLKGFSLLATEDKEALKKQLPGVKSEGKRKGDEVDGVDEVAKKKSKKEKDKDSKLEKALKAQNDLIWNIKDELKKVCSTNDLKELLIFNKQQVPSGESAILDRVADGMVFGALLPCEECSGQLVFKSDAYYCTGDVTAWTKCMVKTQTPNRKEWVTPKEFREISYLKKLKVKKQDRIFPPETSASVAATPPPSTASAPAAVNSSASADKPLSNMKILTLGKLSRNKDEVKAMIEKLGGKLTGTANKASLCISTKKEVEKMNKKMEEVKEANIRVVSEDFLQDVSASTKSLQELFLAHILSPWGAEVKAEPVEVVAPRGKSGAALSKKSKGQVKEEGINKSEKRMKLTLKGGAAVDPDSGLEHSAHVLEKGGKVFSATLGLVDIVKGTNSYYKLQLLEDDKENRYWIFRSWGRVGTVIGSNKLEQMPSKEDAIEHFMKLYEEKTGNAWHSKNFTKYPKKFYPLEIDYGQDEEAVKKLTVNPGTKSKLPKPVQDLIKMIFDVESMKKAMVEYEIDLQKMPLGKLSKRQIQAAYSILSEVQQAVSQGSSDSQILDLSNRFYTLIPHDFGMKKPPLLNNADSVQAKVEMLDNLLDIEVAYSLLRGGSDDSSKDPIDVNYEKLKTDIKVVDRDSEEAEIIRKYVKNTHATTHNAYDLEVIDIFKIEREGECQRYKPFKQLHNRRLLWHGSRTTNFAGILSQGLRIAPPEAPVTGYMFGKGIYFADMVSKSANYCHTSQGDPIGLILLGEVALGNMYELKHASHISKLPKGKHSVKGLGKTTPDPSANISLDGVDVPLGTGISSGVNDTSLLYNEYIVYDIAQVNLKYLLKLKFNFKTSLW

As for `Cc1c(Cc2ccc(F)c(C(=O)N3CCN(C45CC(C4)C5)C(=O)C3)c2)n[nH]c(=O)c1C` [Example 52, 6-{3-[(4-Bicyclo[1.1.1]pent-1-yl-3-oxopiperazin-1-yl)carbonyl]-4-fluorobenzyl}-4,5-dimethyl-3-oxo-2,3-dihydropyridazin-1-ium trifluoroacetate], the IC50 on PARP-1 was in the range of 5 to 25 nM. Further, in assay [1], the CC50 lay within 50 to 500 nM.

Turning to `Cc1c(Cc2ccc(F)c(C(=O)N3CCN(CC4CCCc5ccccc54)C(=O)C3)c2)n[nH]c(=O)c1C` (stereo not drawn) [Example 53, 6-(4-Fluoro-3-{[3-oxo-4-(1,2,3,4-tetrahydronaphthalen-1-ylmethyl)piperazin-1-yl]carbonyl}benzyl)-4,5-dimethyl-3-oxo-2,3-dihydropyridazin-1-ium trifluoroacetate], the IC50 at PARP-1 was in the range of 5 to 25 nM. Also, in assay [1], the CC50 lay in the range of 50 to 500 nM.

On to `Cc1c(Cc2ccc(F)c(C(=O)N3CCN(C(C)c4nc(C(C)C)no4)C(=O)C3)c2)n[nH]c(=O)c1C` (stereo not drawn) [Example 54, 6-[4-Fluoro-3-({4-[1-(3-isopropyl-1,2,4-oxadiazol-5-yl)ethyl]-3-oxopiperazin-1-yl}carbonyl)benzyl]-4,5-dimethyl-3-oxo-2,3-dihydropyridazin-1-ium trifluoroacetate], for which the IC50 on PARP-1 is < 5 nM. Moreover, in assay [1], the CC50 lay in the range of 50 to 500 nM.

Consider `Cc1c(Cc2ccc(F)c(C(=O)N3CCN(C4CC(F)(F)C4)C(=O)C3)c2)n[nH]c(=O)c1C` [Example 55, 6-(3-{[4-(3,3-Difluorocyclobutyl)-3-oxopiperazin-1-yl]carbonyl}-4-fluorobenzyl)-4,5-dimethyl-3-oxo-2,3-dihydropyridazin-1-ium trifluoroacetate], for which the IC50 against PARP-1 lay in the range of 5 to 25 nM. Also, the CC50 in assay [1] was in the range of 50 to 500 nM.

With `Cc1c(Cc2ccc(F)c(C(=O)N3CCN(CC4(c5ccccc5)CCOCC4)C(=O)C3)c2)n[nH]c(=O)c1C` [Example 56, 6-[4-Fluoro-3-({3-oxo-4-[(4-phenyltetrahydro-2H-pyran-4-yl)methyl]piperazin-1-yl}carbonyl)benzyl]-4,5-dimethyl-3-oxo-2,3-dihydropyridazin-1-ium trifluoroacetate], the IC50 against PARP-1 was 5 to 25 nM. Further, the CC50 in assay [1] is < 5000 nM.

On PARP-1, `Cc1c(Cc2ccc(F)c(C(=O)N3CCN(C4CCC4)C(=O)C3)c2)n[nH]c(=O)c1C` [Example 57, 6-{3-[(4-Cyclobutyl-3-oxopiperazin-1-yl)carbonyl]-4-fluorobenzyl}-4,5-dimethyl-3-oxo-2,3-dihydropyridazin-1-ium trifluoroacetate] registered an IC50 of 5 to 25 nM. Besides, the CC50 in assay [1] lay in the range of 50 to 500 nM.

As for `Cc1c(Cc2ccc(F)c(C(=O)N3CCN(CCc4cccc(F)c4)C(=O)C3)c2)n[nH]c(=O)c1C` [Example 59, 6-[4-Fluoro-3-({4-[2-(3-fluorophenyl)ethyl]-3-oxopiperazin-1-yl}carbonyl)benzyl]-4,5-dimethyl-3-oxo-2,3-dihydropyridazin-1-ium trifluoroacetate], on PARP-1, the IC50 was < 5 nM. The CC50 in assay [1] was 50 to 500 nM.

As for `Cc1c(Cc2ccc(F)c(C(=O)N3CCN(c4cnc5ccccc5c4)C(=O)C3)c2)n[nH]c(=O)c1C` [Example 60, 6-{4-Fluoro-3-[(3-oxo-4-quinolin-3-ylpiperazin-1-yl)carbonyl]benzyl}-4,5-dimethylpyridazin-3(2H)-one], the IC50 at PARP-1 was < 5 nM. For the same compound, the CC50 in assay [1] is < 50 nM.

Take `Cc1c(Cc2ccc(F)c(C(=O)N3CCN(c4cc(C(F)(F)F)ccn4)C(=O)C3)c2)n[nH]c(=O)c1C` [Example 61, 3-[4-Fluoro-3-({3-oxo-4-[4-(trifluoromethyl)pyridin-2-yl]piperazin-1-yl}carbonyl)benzyl]-4,5-dimethyl-6-oxo-1,6-dihydropyridazin-1-ium trifluoroacetate]: the IC50 against PARP-1 fell in the range of 5 to 25 nM. Further, the CC50 in assay [1] was 50 to 500 nM.

In the case of `Cc1c(Cc2ccc(F)c(C(=O)N3CCN([C@@H]4CCCC[C@H]4c4ccccc4)C(=O)C3)c2)n[nH]c(=O)c1C` [Example 67, 6-[4-Fluoro-3-({3-oxo-4-[(1R,2S)-2-phenylcyclohexyl]piperazin-1-yl}carbonyl)benzyl]-4,5-dimethyl-3-oxo-2,3-dihydropyridazin-1-ium trifluoroacetate], the IC50 on PARP-1 fell in the range of 5 to 25 nM. For the same compound, in assay [1], the CC50 lay within 50 to 500 nM.

`Cc1c(Cc2ccc(F)c(C(=O)N3CCN(CC(F)(F)F)C(=O)C3)c2)n[nH]c(=O)c1C` [Example 72, 6-(4-Fluoro-3-{[3-oxo-4-(2,2,2-trifluoroethyl)piperazin-1-yl]carbonyl}benzyl)-4,5-dimethyl-3-oxo-2,3-dihydropyridazin-1-ium trifluoroacetate] registered an IC50 at PARP-1 of 5 to 25 nM. For the same compound, in assay [1], the CC50 lay in the range of 50 to 500 nM.

With `Cc1c(Cc2ccc(F)c(C(=O)N3CCN(C4CCCCCC4)C(=O)C3)c2)n[nH]c(=O)c1C` [Example 73, 6-{3-[(4-Cycloheptyl-3-oxopiperazin-1-yl)carbonyl]-4-fluorobenzyl}-4,5-dimethyl-3-oxo-2,3-dihydropyridazin-1-ium trifluoroacetate], at PARP-1, the IC50 is < 5 nM. In assay [1], the CC50 was < 50 nM.

On to `Cc1c(Cc2ccc(F)c(C(=O)N3CCN(C4CCOC(C)(C)C4)C(=O)C3)c2)n[nH]c(=O)c1C` (stereo not drawn) [Example 76, 6-(3-{[4-(2,2-Dimethyltetrahydro-2H-pyran-4-yl)-3-oxopiperazin-1-yl]carbonyl}-4-fluorobenzyl)-4,5-dimethylpyridazin-3(2H)-one trifluoroacetate], for which the IC50 against PARP-1 was < 5 nM. The CC50 in assay [1] is < 5000 nM.

`Cc1c(Cc2ccc(F)c(C(=O)N3CC(=O)N(c4ccccc4)C(C)(C)C3)c2)n[nH]c(=O)c1C` [Example 77, 6-{3-[(3,3-Dimethyl-5-oxo-4-phenylpiperazin-1-yl)carbonyl]-4-fluorobenzyl}-4,5-dimethylpyridazin-3(2H)-one]: on PARP-1, the IC50 is < 5 nM. Also, the CC50 in assay [1] is < 50 nM.

Consider `O=C(c1cc(Cc2cc(C(F)(F)C(F)(F)F)c(=O)[nH]n2)ccc1F)N1CCN(C2CCCC2)C(=O)C1` [Example 81, 6-{3-[(4-Cyclopentyl-3-oxopiperazin-1-yl)carbonyl]-4-fluorobenzyl}-4-(pentafluoroethyl)pyridazin-3(2H)-one], for which the IC50 at PARP-1 was 5 to 25 nM. Further, the cytotoxic concentration (CC50) in assay [1] is 50 to 500 nM.

For the compound `Cc1c(Cc2ccc(F)c(C(=O)N3CC(=O)N4CCCC[C@@H]4C3)c2)n[nH]c(=O)c1C` [Example 90, (9aR)-2-{5-[(4,5-Dimethyl-6-oxo-1,6-dihydropyridazin-3-yl)methyl]-2-fluorobenzoyl}octahydro-4H-pyrido[1,2-a]pyrazin-4-one trifluoroacetate], the IC50 against PARP-1 is < 5 nM. Besides, the CC50 in assay [1] is < 50 nM.

On to `Cc1c(Cc2ccc(F)c(C(=O)N3CCN(c4ccc(C#N)cc4)C(=O)C3)c2)n[nH]c(=O)c1C` [Example 94, 3-(3-{[4-(4-Cyanophenyl)-3-oxopiperazin-1-yl]carbonyl}-4-fluorobenzyl)-4,5-dimethyl-6-oxo-1,6-dihydropyridazin-1-ium trifluoroacetate], for which the IC50 on PARP-1 was < 5 nM. The CC50 in assay [1] lay within 50 to 500 nM.

For the compound `Cc1c(Cc2ccc(F)c(C(=O)N3CCN(c4ccc(S(C)(=O)=O)cc4)C(=O)C3)c2)n[nH]c(=O)c1C` [Example 95, 3-[4-Fluoro-3-({4-[4-(methylsulfonyl)phenyl]-3-oxopiperazin-1-yl}carbonyl)benzyl]-4,5-dimethyl-6-oxo-1,6-dihydropyridazin-1-ium trifluoroacetate], at PARP-1, the IC50 is < 5 nM. Also, the CC50 in assay [1] was 50 to 500 nM.
